Experimental findings from patent US20180057505A1, “BICYCLIC HETEROARYL COMPOUNDS USEFUL AS INHIBITORS OF THE PAR-2 SIGNALING PATHWAY” (VERTEX PHARMACEUTICALS INCORPORATED, priority 2015, published 2018) are described below.

Holding throughout (format): cell-based
Assay [1] concerns UTP-stimulated Ca2+ response in HT-29 cells. The experiment in a line: Ca FLIPR TETRA assay, ANTAGONIST mode, activator 0.6 μM UTP. The following applies: Homo sapiens; HT-29 cells, activator 0.6 μM UTP. The gist of the method:
(§1)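 Compounds are added to calcium 5-loaded HT-29 cells, read once for intrinsic Ca2+ activation, then incubated 30 min at room temperature. The same wells are then stimulated with a fixed final activator level and the Ca2+ response recorded on FLIPR Tetra.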

For assay [2], the target named is T1, PAR2 (HT-29 cells) (Homo sapiens, UniProt P55085).
T1 construct: host or cells: HT-29
T1 sequence (P55085 26-397): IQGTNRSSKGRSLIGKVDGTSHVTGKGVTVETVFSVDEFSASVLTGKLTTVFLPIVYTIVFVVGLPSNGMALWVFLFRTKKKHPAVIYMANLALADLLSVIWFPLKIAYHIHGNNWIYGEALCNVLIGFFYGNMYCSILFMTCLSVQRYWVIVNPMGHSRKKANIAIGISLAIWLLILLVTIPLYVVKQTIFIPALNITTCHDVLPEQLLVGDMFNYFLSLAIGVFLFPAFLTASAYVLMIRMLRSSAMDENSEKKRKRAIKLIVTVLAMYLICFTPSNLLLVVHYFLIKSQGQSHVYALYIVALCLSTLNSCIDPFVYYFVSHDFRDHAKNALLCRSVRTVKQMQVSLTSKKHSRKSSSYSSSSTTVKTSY
The experiment in a line: Ca FLIPR TETRA assay, ANTAGONIST mode, activator 3.1 U/mL trypsin. The following applies: for IC50: HT-29 cells, activator 3.1 U/mL trypsin, maximal antagonist concentration per Method (A: 0.1, 1 or 2 μM; B: 50 μM). The gist of the method: as §1

The subject of assay [3] is Thrombin-stimulated Ca2+ response in HT-29 cells. Description: Ca FLIPR TETRA assay, ANTAGONIST mode, activator 1 U/mL Thrombin. Conditions: Homo sapiens; HT-29 cells, activator 1 U/mL Thrombin. The gist of the method: as §1
The target in assay [4] is T1, PAR2 (HT-29 cells). Description: Ca FLIPR TETRA assay, ANTAGONIST mode, activator 8 μM SLIGKV. Conditions: HT-29 cells, activator 8 μM SLIGKV; maximal antagonist concentration per Method (A: 0.1, 1 or 2 μM; B: 50 μM). In outline: as §1

The term IC50 denotes the concentration at which inhibition is half-maximal. Regarding `CC(C)c1nc(-c2ccc(F)cc2)nc2cc(C(=O)N3CCN(C(=O)[C@H](O)CC(C)(C)C)CC3(C)C)oc12` [Example I-126], the half-inhibitory concentration (IC50) was 22000 nM in assay [1], 67 nM in assay [2], 13000 nM in assay [3] and 110 nM in assay [4].

As for `CC1(c2nc(-c3ccc(F)cc3)nc3cc(C(=O)N4CCNC(=O)C4(C)C)oc23)CC1` [Example I-127], the IC50 in assay [1] was over 50000 nM; in assay [3] it was over 50000 nM; in assay [4], 740 nM. Moreover, the “Trypsin, % @ 50” value in assay [2] (@ 50 (μM)) worked out at 49% @ 50.

As for `C[C@H]1CN(C(=O)c2cc3nc(-c4ccc(F)cc4)nc(C4(C)CC4)c3o2)CCN1C(=O)[C@H](O)CC(C)(C)C` [Example I-128], the IC50 in assay [1] was 44000 nM; in assay [2], 5300 nM; in assay [3], over 50000 nM; in assay [4], 540 nM.

`CC(C)(C)C[C@@H](O)C(=O)N1CCN(C(=O)c2cc3nc(-c4ccc(F)cc4)nc(C4(C)CC4)c3o2)C(C)(C)C1` [Example I-129]: the IC50 is over 50000 nM in assay [1], 270 nM in assay [2], over 50000 nM in assay [3] and 250 nM in assay [4].

For the molecule `CC(C)c1cc(-c2ccc(F)cc2)nc2sc(C(=O)N3CCN(C(=O)[C@H](O)CC(C)(C)C)[C@@H](C)C3)nc12` [Example I-130], the IC50 in assay [1] is 30000 nM; in assay [2], 2600 nM; in assay [3] it was over 35000 nM; in assay [4], 2100 nM.

For `CC(C)c1cc(-c2ccc(F)cc2)nc2sc(C(=O)N3CCNC(=O)C3(C)C)nc12` [Example I-131], the IC50 is 12000 nM in assay [1], 68 nM in assay [2], 19000 nM in assay [3] and 66 nM in assay [4].

For the molecule `CC(C)c1cc(-c2ccc(F)cc2)nc2sc(C(=O)N3CCN(C(=O)[C@H](O)CC(C)(C)C)CC3(C)C)nc12` [Example I-132], the IC50 was over 50000 nM in assay [1], 9 nM in assay [2], over 50000 nM in assay [3] and 6.4 nM in assay [4].

Take `CC(C)c1cc(-c2ccc(F)cc2)nc2oc(C(=O)N3CCNC(=O)C3(C)C)nc12` [Example I-133]: the IC50 in assay [1] is 20000 nM; in assay [2], 7500 nM; in assay [3], 20000 nM; in assay [4], 5900 nM.

`CC(C)c1cc(-c2ccc(F)cc2)nc2cc(C(=O)N3CCN(C(=O)[C@H]4C[C@](O)(C(F)(F)F)C4)CC3(C)C)oc12` [Example I-134]: the IC50 was over 1000 nM in assay [1], 0.9 nM in assay [2], over 1000 nM in assay [3] and 0.6 nM in assay [4].

For the molecule `CC(C)c1cc(-c2ccc(F)cc2)nc2cc(C(=O)N3CCN(C(=O)[C@H]4C[C@@H](O)C4)CC3(C)C)oc12` [Example I-135], the IC50 in assay [1] was over 1000 nM; in assay [2], 42 nM; in assay [3], over 1000 nM; in assay [4] it was 24 nM.

In the case of `CC(C)c1cc(-c2ccc(F)cc2)nc2cc(C(=O)N3CCN(C(=O)[C@H]4C[C@@](C)(O)C4)CC3(C)C)oc12` [Example I-136], the IC50 was over 1000 nM in assay [1], 7.4 nM in assay [2], over 1000 nM in assay [3] and 6.4 nM in assay [4].

Consider `CC(C)c1cc(-c2ccc(F)cc2)nc2cc(C(=O)N3CCN(C(=O)[C@H]4C[C@@](O)(C(F)(F)F)C4)CC3(C)C)oc12` [Example I-137], for which the IC50 in assay [1] came out at 830 nM; in assay [2], 9.4 nM; in assay [3], 500 nM; in assay [4], 7.8 nM.

Consider `Cc1cc(C(=O)N2CCN(C(=O)c3cc4nc(-c5ccc(F)cc5)cc(C(C)C)c4o3)C(C)(C)C2)on1` [Example I-138], for which the IC50 in assay [1] was over 1000 nM; in assay [2], 2.2 nM; in assay [3], over 1000 nM; in assay [4], 2 nM.

On to `CC(C)c1cc(-c2ccc(F)cc2)nc2cc(C(=O)N3CCN(C(=O)c4ccnn4C)CC3(C)C)oc12` [Example I-139], for which the IC50 in assay [1] was over 1000 nM; in assay [2], 33 nM; in assay [3], over 1000 nM; in assay [4], 24 nM.

`Cc1cnoc1C(=O)N1CCN(C(=O)c2cc3nc(-c4ccc(F)cc4)cc(C(C)C)c3o2)C(C)(C)C1` [Example I-140]: the IC50 in assay [1] is over 1000 nM; in assay [2], 3.5 nM; in assay [3] it was over 1000 nM; in assay [4], 4.8 nM.

Turning to `CC(C)c1cc(-c2ccc(F)cc2)nc2cc(C(=O)N3CCN(C(=O)c4ccn(C)n4)CC3(C)C)oc12` [Example I-141], the IC50 is over 1000 nM in assay [1], 4.2 nM in assay [2], over 1000 nM in assay [3] and 3.2 nM in assay [4].

Take `CC(C)c1cc(-c2ccc(F)cc2)nc2cc(C(=O)N3CCN(C(=O)c4nnc[nH]4)CC3(C)C)oc12` [Example I-142]: the IC50 is over 1000 nM in assay [1], 13 nM in assay [2], over 1000 nM in assay [3] and 7.2 nM in assay [4].

For `C=C(C)c1cc(-c2ccc(F)cc2)nc2cc(C(=O)N3CCN(C(=O)[C@H]4C[C@](O)(C(F)(F)F)C4)CC3(C)C)oc12` [Example I-143], the IC50 in assay [1] was over 1000 nM; in assay [2], 2.2 nM; in assay [3], over 1000 nM; in assay [4], 2.1 nM.

`CC(C)c1cc(-c2ccc(F)cc2)nc2cc(C(=O)N3CCN(S(=O)(=O)c4cn(C)cn4)CC3(C)C)oc12` [Example I-144]: the IC50 in assay [1] was over 1000 nM; in assay [2], 31 nM; in assay [3], over 1000 nM; in assay [4] it was 24 nM.

On to `Cc1ncc(S(=O)(=O)N2CCN(C(=O)c3cc4nc(-c5ccc(F)cc5)cc(C(C)C)c4o3)C(C)(C)C2)n1C` [Example I-145], for which the IC50 is over 1000 nM in assay [1], 42 nM in assay [2], over 1000 nM in assay [3] and 40 nM in assay [4].

Turning to `Cc1nn(C)cc1S(=O)(=O)N1CCN(C(=O)c2cc3nc(-c4ccc(F)cc4)cc(C(C)C)c3o2)C(C)(C)C1` [Example I-146], the IC50 was over 1000 nM in assay [1], 21 nM in assay [2], over 1000 nM in assay [3] and 13 nM in assay [4].

For the molecule `CC(C)c1cc(-c2ccc(F)cc2)nc2cc(C(=O)N3CCN(S(=O)(=O)c4cn[nH]c4)CC3(C)C)oc12` [Example I-147], the half-inhibitory concentration (IC50) in assay [1] was over 1000 nM; in assay [2] it was 34 nM; in assay [3], over 1000 nM; in assay [4], 20 nM.

Consider `CC(C)c1cc(-c2ccc(F)cc2)nc2cc(C(=O)N3CCN(S(=O)(=O)c4ccn(C)n4)CC3(C)C)oc12` [Example I-148], for which the IC50 in assay [1] is over 1000 nM; in assay [2] it was 36 nM; in assay [3], over 1000 nM; in assay [4], 46 nM.

With `CC(C)(C)c1cc(-c2ccc(F)cc2)nc2cc(C(=O)N3CCNC(=O)C3(C)C)oc12` [Example I-149], the IC50 in assay [1] was over 1000 nM; in assay [2] it was 9.6 nM; in assay [3], over 1000 nM; in assay [4] it was 7.6 nM.

On to `CCc1cc(-c2ccc(F)cc2)nc2cc(C(=O)N3CCN(C(=O)[C@H]4C[C@](O)(C(F)(F)F)C4)CC3(C)C)oc12` [Example I-150], for which the concentration for half-maximal inhibition (IC50) is over 1000 nM in assay [1], 1.6 nM in assay [2], over 1000 nM in assay [3] and 1.1 nM in assay [4].

With `CC(C)(C)c1cc(-c2ccc(F)cc2)nc2cc(C(=O)N3CCN(C(=O)[C@H]4C[C@@](C)(O)C4)CC3(C)C)oc12` [Example I-151], the IC50 in assay [1] is over 1000 nM; in assay [2], 2.7 nM; in assay [3], over 1000 nM; in assay [4] it was 1.5 nM.
